Ends that are not written are not given here.
Columns and labels:
[1] = target: rabbit antibodies that recognize specifically the carboxyl terminal tryptophan of ET-1; assay: radioimmunoassay: displacement of [125I]ET-1 binding to the antibodies; settings: mean±SEM, n=3-5; 4° C. overnight
Procedure: Diluted samples (200 μL) obtained from the above enzyme assay are incubated at 4° C. overnight with 25 μL each of [^125I]ET-1 (10,000 cpm/tube) and 1:20,000-fold diluted rabbit antibodies that recognize specifically the carboxyl terminal tryptophan of ET-1. Goat anti-rabbit antibodies coupled to magnetic beads (70 μg) are then added to each tube, and the reaction mixture is further incubated for 30 min at room temperature. The beads are pelleted using a magnetic rack. The supernatant is decanted, and the radioactivity in the pellet is counted in a gamma counter. Total and nonspecific binding are measured in the absence of nonradioactive ET-1 and anti-ET antibodies, respectively.

Q: For “ET-1: endothelin-1, formed from big ET-1 by ECE; nonradioactive competitor in the radioimmunoassay”, which “IC50 for displacement of [125I]ET-1 binding to the antibodies” value [1] is on record?
A: 21 ± 2 fmol

Q: With `COc1ccccc1-c1ccc(C[C@H](NC(=O)C2(NC(=O)[C@@H](S)C(C)C)CCCC2)C(=O)O)cc1OC` (stereo in doubt) [3-(2,2′-Dimethoxy-biphenyl-4-yl)-2-{[1-(2-mercapto-3-methyl-butanoylamino)-cyclopentanecarbonyl]-amino}-propionic acid] as the compound, how does the melting point read?
A: 173 to 175 °C

Q: With `CC(C)[C@H](S)C(=O)NC1(C(=O)N[C@@H](Cc2ccc(-c3ccccc3F)cc2)C(=O)O)CCCC1` (stereo in doubt) [3-(2′-Fluoro-biphenyl-4-yl)-2-{[1-(2-mercapto-3-methyl-butanoylamino)-cyclopentanecarbonyl]-amino}-propionic acid] as the compound, how does the melting point read?
A: 171 to 173 °C

Q: With `CSc1ccc(-c2ccc(C[C@H](NC(=O)C3(NC(=O)[C@@H](S)CC(C)C)CCCC3)C(=O)O)cc2)cc1` (stereo in doubt) [2-{[1-(2-mercapto4-methyl-pentanoylamino)-cyclopentanecarbonyl]-amino}-3-(4′-methylthio-biphenyl-4-yl)-propionic acid] as the compound, how does the melting point read?
A: 187 to 189 °C

Q: Which melting point does the source give for `CC(C)C[C@H](S)C(=O)NC1(C(=O)N[C@@H](Cc2ccc(-c3cccc(F)c3)cc2)C(=O)O)CCCC1` (stereo in doubt) [3-(3′-Fluoro-biphenyl-4-yl)-2-{[1-(2-mercapto-4-methyl-pentanoylamino)-cyclopentanecarbonyl]-amino}-propionic acid] here?
A: 125 to 128 °C

Q: For `CC(C)CC(S)C(=O)NC1(C(=O)NC(Cc2csc3ccccc23)C(=O)O)CCCC1` (stereo not drawn) [Example 13(e), 3-Benzo[b]thiophen-3-yl-2-{[1-(2-mercapto4-methyl-pentanoylamino)-cyclopentanecarbonyl]-amino}-propionic acid], which melting point is on record?
A: 135 to 137 °C

Q: Which melting point does the source give for `CC(C)C[C@H](S)C(=O)NC1(C(=O)NC(Cc2ccc(-c3cncnc3)cc2)C(=O)O)CCCC1` (stereo in doubt) [2-{[1-(2-Mercapto-4-methyl-pentanoylamino)-cyclopentanecarbonyl]-amino}-3-(4-pyrimidin-5-yl-phenyl)-propionic acid] here?
A: 192 to 195 °C

Q: For `CCC[C@H](S)C(=O)NC1(C(=O)N[C@@H](Cc2ccc(-c3ccno3)cc2)C(=O)O)CCCC1` (stereo in doubt) [3-(4-Isoxazole-5-yl-phenyl)-2-{[1-(2-mercapto-pentanoylamino)-cyclopentanecarbonyl]-amino}-propionic acid], which melting point is on record?
A: 95 to 108 °C

Q: With “big ET-1: Human big ET-1, the ECE substrate used in the enzyme assay (CSCSSLMDKECVYFCHLDIIWVNTPEHVVPYGLGSPRS; ends and bridges not checked; cysteine pairing not given here; UniProt P05305 53-90, looked up)” as the compound, how does the “IC50 for displacement of [125I]ET-1 binding to the antibodies” value [1] read?
A: 260,000±66,000 fmol

Q: For `O=C(NC1(C(=O)N[C@@H](Cc2ccc(-c3ccsc3)cc2)C(=O)O)CCCC1)C(S)Cc1ccccc1` (stereo in doubt) [2-{[1-(2-Mercapto-3-phenyl-propionylamino)-cyclopentanecarbonyl]-amino}-3-[4-(thiophen-3-yl)-phenyl]-propionic acid], which melting point is on record?
A: 190 to 192 °C

Q: Which melting point does the source give for `Cc1c(CC(NC(=O)C2(NC(=O)C(S)CC(C)C)CCCC2)C(=O)O)oc2c(F)c(F)c(F)c(F)c12` (stereo not drawn) [Example 13(a), 2-{[1-(2-Mercapto-4-methyl-pentanoylamino)-cyclopentanecarbonyl]-amino}-3-(4,5,6,7-tetrafluoro-3-methyl-benzofuran-2-yl)-propionic acid] here?
A: 115 to 117 °C

Q: For `CC(C)C[C@H](S)C(=O)NC1(C(=O)N[C@@H](Cc2ccc(-c3ccno3)cc2)C(=O)O)CCCC1` (stereo in doubt) [3-(4-Isoxazole-5-yl-phenyl)-2-{[1-(2-mercapto4-methyl-pentanoylamino)-cyclopentanecarbonyl]-amino}-propionic acid], which melting point is on record?
A: 104 to 110 °C
